Data taken from paper doi:10.1101/2025.10.23.682519v1 (biorxiv, 2025).
pIC50: −log10 of the molar value.

Key:
Test in all cases: cell-based
[1] = target: human ZIP14 (hZIP14) isoform 1, HA-tagged (Homo sapiens, UniProt Q15043)
human ZIP8 (hZIP8) = human ZIP8 (hZIP8) (Homo sapiens, UniProt Q9C0K1)
[2] = target: human ZIP14 (hZIP14) isoform 1, HA-tagged (Homo sapiens, UniProt Q15043, D443L)
Chain of human ZIP14 (hZIP14) isoform 1, HA-tagged (Homo sapiens, UniProt Q15043, D443L) (Q15043 31-492 D443L): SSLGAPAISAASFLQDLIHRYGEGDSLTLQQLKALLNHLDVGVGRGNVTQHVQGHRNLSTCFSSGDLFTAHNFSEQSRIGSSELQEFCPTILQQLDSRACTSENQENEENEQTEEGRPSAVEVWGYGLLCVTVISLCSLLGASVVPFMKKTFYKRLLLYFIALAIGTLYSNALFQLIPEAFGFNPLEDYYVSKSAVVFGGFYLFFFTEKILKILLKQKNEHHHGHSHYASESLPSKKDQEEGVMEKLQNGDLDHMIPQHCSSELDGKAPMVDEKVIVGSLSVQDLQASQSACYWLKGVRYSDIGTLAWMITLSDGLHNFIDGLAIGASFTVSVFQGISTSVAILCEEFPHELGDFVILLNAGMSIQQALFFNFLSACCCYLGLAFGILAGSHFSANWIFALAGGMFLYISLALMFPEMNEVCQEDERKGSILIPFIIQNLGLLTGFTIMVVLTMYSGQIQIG

Chain of human ZIP8 (hZIP8) (Q9C0K1 23-460): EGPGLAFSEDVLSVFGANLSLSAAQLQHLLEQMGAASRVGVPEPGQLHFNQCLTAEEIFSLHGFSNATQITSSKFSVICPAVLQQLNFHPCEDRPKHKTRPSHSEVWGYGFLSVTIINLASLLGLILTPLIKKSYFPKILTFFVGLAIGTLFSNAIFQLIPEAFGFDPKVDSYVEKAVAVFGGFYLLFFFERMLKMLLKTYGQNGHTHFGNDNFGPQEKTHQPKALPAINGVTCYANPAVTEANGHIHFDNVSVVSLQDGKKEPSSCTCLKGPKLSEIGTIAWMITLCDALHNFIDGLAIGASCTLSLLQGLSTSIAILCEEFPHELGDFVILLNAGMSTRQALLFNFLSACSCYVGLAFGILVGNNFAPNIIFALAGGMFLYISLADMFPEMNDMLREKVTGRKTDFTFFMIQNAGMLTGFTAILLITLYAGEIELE
Chain of human ZIP14 (hZIP14) isoform 1, HA-tagged (Homo sapiens, UniProt Q15043) (Q15043 31-492): as the sequence (Q15043 31-492 D443L) above, with L413D counted along it

`O=C1NCN(c2ccccc2)C12CCN(CCc1ccccc1)CC2` [PPTD, 1-phenyl-8-(2-phenylethyl)-1,3,8-triazaspiro[4.5]decan-4-one] was tested, and the pIC50 [1] was 5.05, the pIC50 (human ZIP8 (hZIP8)) was < 4.43 and the pIC50 [2] was 4.72.
